In publication PMC5847526, “Inhibition of neuronal FLT3 receptor tyrosine kinase alleviates peripheral neuropathic pain in mice” (Nature Communications, 2018):

Key:
[1] = target: MARK1 (Homo sapiens, UniProt Q9P0L2); assay: biochemical; design: ExpresS Diversity kinase profile (Eurofins Cerep P10), per cent inhibition; conditions: read-out: Inhibition of reference binding (Table 4)
[2] = target: EGFR kinase (Homo sapiens, UniProt P00533); assay: biochemical; design: ExpresS Diversity kinase profile (Eurofins Cerep P10), per cent inhibition; conditions: read-out: Inhibition of reference binding (Table 4)
[3] = target: T1, IRK (Homo sapiens, UniProt P06213); assay: biochemical; design: ExpresS Diversity kinase profile (Eurofins Cerep P10), per cent inhibition; conditions: read-out: Inhibition of reference binding (Table 4)
T1 construct: gene INSR; insulin receptor kinase
T1 sequence (P06213 whole entry): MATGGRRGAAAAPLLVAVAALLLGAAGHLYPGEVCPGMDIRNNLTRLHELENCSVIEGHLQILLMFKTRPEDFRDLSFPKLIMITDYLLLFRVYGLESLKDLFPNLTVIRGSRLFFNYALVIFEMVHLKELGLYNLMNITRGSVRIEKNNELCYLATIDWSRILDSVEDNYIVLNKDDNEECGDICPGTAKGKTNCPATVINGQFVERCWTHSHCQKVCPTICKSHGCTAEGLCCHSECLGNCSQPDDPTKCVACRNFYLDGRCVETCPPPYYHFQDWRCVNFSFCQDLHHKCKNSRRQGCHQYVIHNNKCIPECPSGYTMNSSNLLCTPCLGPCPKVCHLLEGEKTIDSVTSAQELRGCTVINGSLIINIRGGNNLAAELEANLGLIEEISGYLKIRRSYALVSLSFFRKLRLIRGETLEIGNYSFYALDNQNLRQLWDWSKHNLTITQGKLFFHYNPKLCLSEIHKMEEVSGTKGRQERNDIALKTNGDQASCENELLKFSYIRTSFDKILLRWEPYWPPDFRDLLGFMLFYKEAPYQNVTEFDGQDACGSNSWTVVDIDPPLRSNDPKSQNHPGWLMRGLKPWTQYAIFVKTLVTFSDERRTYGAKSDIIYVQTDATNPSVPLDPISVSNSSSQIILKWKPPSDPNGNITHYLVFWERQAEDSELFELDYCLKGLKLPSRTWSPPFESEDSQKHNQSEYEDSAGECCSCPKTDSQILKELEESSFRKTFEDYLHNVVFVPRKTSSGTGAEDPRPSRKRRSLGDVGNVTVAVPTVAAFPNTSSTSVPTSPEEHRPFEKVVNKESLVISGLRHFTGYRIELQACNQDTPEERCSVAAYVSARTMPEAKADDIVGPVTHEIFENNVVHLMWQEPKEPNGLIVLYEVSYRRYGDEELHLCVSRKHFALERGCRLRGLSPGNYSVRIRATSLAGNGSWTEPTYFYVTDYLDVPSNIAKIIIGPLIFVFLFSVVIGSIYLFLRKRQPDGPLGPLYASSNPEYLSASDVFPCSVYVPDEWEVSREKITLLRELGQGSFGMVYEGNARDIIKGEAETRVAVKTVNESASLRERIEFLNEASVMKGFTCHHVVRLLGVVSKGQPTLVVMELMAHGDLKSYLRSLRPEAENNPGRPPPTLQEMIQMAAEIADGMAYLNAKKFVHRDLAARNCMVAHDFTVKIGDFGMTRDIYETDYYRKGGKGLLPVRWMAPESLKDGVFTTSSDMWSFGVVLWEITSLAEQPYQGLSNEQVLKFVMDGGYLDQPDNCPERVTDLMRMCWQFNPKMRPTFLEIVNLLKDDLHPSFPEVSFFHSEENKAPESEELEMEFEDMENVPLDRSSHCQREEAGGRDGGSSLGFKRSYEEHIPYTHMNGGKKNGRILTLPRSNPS

[4] = target: T2, IKKα (Homo sapiens, UniProt O15111); assay: biochemical; design: ExpresS Diversity kinase profile (Eurofins Cerep P10), per cent inhibition; conditions: read-out: Inhibition of reference binding (Table 4)
T2 construct: gene CHUK

[5] = target: Akt1/PKBα (Homo sapiens, UniProt P31749); assay: biochemical; design: ExpresS Diversity kinase profile (Eurofins Cerep P10), per cent inhibition; conditions: read-out: Inhibition of reference binding (Table 4)
[6] = target: c-KIT (Homo sapiens, UniProt P10721); assay: biochemical; design: ExpresS Diversity kinase profile (Eurofins Cerep P10), per cent inhibition; conditions: read-out: Inhibition of reference binding (Table 4)
[7] = target: T3, PKA (Homo sapiens, UniProt P17612); assay: biochemical; design: ExpresS Diversity kinase profile (Eurofins Cerep P10), per cent inhibition; conditions: read-out: Inhibition of reference binding (Table 4)
T3 construct: gene PRKACA

[8] = target: T4, SIK (Homo sapiens, UniProt P57059); assay: biochemical; design: ExpresS Diversity kinase profile (Eurofins Cerep P10), per cent inhibition; conditions: read-out: Inhibition of reference binding (Table 4)
T4 construct: gene SIK1

[9] = target: Src kinase (Homo sapiens, UniProt P12931); assay: biochemical; design: ExpresS Diversity kinase profile (Eurofins Cerep P10), per cent inhibition; conditions: read-out: Inhibition of reference binding (Table 4)
Chain of Src kinase (P12931 whole entry): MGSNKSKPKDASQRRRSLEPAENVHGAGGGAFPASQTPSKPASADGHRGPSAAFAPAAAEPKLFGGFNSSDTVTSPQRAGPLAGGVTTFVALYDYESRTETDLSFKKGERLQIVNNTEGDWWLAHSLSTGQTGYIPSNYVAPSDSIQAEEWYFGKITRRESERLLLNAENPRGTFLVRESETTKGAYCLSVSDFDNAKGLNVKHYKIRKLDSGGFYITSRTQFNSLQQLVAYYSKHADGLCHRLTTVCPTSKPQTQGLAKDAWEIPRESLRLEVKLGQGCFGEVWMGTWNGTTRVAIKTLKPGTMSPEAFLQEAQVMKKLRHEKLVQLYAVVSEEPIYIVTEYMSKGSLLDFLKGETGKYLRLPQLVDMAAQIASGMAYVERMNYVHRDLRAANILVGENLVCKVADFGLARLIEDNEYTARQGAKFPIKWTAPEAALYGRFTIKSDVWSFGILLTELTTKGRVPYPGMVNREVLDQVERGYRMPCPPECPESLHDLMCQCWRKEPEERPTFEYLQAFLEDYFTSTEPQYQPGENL

[10] = target: PLK1 (Homo sapiens, UniProt P53350); assay: biochemical; design: ExpresS Diversity kinase profile (Eurofins Cerep P10), per cent inhibition; conditions: read-out: Inhibition of reference binding (Table 4)
[11] = target: c-Met kinase (Homo sapiens, UniProt P08581); assay: biochemical; design: ExpresS Diversity kinase profile (Eurofins Cerep P10), per cent inhibition; conditions: read-out: Inhibition of reference binding (Table 4)
[12] = target: SGK1 (Homo sapiens, UniProt O00141); assay: biochemical; design: ExpresS Diversity kinase profile (Eurofins Cerep P10), per cent inhibition; conditions: read-out: Inhibition of reference binding (Table 4)
[13] = target: NEK2 (Homo sapiens, UniProt P51955); assay: biochemical; design: ExpresS Diversity kinase profile (Eurofins Cerep P10), per cent inhibition; conditions: read-out: Inhibition of reference binding (Table 4)
[14] = target: Pim2 kinase (Homo sapiens, UniProt Q9P1W9); assay: biochemical; design: ExpresS Diversity kinase profile (Eurofins Cerep P10), per cent inhibition; conditions: read-out: Inhibition of reference binding (Table 4)
[15] = target: T5, JNK1 (Homo sapiens, UniProt P45983); assay: biochemical; design: ExpresS Diversity kinase profile (Eurofins Cerep P10), per cent inhibition; conditions: read-out: Inhibition of reference binding (Table 4)
T5 construct: gene MAPK8
T5 sequence (P45983 whole entry): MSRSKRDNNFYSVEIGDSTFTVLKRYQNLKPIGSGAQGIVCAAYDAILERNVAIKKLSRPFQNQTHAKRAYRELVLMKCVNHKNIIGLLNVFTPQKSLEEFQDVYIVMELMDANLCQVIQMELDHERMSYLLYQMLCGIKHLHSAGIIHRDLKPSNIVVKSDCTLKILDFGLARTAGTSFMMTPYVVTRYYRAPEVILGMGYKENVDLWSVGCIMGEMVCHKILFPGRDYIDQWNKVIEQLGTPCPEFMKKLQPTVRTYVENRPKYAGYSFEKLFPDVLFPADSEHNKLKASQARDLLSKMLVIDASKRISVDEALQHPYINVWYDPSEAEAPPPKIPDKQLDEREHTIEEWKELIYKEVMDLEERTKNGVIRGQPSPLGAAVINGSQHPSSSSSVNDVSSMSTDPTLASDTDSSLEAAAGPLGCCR

[16] = target: EphA3 kinase (Homo sapiens, UniProt P29320); assay: biochemical; design: ExpresS Diversity kinase profile (Eurofins Cerep P10), per cent inhibition; conditions: read-out: Inhibition of reference binding (Table 4)
[17] = target: T6, Abl kinase (Homo sapiens, UniProt P00519); assay: biochemical; design: ExpresS Diversity kinase profile (Eurofins Cerep P10), per cent inhibition; conditions: read-out: Inhibition of reference binding (Table 4)
T6 construct: gene ABL1

[18] = target: KDR (Homo sapiens, UniProt P35968); assay: biochemical; design: ExpresS Diversity kinase profile (Eurofins Cerep P10), per cent inhibition; conditions: read-out: Inhibition of reference binding (Table 4)
Chain of KDR (P35968 whole entry): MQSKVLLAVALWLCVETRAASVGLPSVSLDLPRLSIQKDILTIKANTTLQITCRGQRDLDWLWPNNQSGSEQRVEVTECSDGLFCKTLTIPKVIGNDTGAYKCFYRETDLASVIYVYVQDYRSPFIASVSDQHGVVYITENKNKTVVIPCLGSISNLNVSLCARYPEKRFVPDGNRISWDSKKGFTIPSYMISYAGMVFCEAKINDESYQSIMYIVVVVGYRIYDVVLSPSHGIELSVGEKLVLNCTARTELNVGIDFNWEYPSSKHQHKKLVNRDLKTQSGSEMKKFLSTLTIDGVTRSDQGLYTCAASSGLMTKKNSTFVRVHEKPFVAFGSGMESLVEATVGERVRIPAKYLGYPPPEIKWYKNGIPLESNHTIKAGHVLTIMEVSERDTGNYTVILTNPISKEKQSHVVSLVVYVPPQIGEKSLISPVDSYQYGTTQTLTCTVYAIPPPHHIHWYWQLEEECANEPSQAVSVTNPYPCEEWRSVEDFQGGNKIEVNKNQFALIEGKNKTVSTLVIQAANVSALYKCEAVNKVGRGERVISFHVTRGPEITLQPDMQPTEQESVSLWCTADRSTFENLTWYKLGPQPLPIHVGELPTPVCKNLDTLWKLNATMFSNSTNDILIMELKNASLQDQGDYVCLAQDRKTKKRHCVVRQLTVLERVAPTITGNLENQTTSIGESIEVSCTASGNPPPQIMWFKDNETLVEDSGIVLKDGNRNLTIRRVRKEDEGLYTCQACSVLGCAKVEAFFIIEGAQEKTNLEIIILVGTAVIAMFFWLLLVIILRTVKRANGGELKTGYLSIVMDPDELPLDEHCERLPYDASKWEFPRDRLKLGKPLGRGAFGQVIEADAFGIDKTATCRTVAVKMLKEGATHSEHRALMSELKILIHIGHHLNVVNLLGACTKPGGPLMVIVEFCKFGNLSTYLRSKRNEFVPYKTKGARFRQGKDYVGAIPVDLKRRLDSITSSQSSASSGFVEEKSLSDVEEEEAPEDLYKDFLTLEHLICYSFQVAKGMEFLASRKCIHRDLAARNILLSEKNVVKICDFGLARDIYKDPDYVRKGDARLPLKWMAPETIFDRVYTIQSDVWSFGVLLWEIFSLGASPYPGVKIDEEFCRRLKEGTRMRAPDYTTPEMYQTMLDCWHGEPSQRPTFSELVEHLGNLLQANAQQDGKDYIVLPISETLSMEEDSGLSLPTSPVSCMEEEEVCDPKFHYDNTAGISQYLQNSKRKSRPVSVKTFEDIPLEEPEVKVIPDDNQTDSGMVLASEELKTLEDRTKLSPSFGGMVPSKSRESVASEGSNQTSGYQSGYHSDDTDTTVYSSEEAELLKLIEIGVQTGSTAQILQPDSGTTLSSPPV

[19] = target: PAK2 (Homo sapiens, UniProt Q13177); assay: biochemical; design: ExpresS Diversity kinase profile (Eurofins Cerep P10), per cent inhibition; conditions: read-out: Inhibition of reference binding (Table 4)
[20] = target: CDK2 (Homo sapiens, UniProt P24941); assay: biochemical; design: ExpresS Diversity kinase profile (Eurofins Cerep P10), per cent inhibition; conditions: read-out: Inhibition of reference binding (Table 4)
[21] = target: CDC2/CDK1 (Homo sapiens, UniProt P06493); assay: biochemical; design: ExpresS Diversity kinase profile (Eurofins Cerep P10), per cent inhibition; conditions: read-out: Inhibition of reference binding (Table 4)
[22] = target: T7, TRKA (Homo sapiens, UniProt P04629); assay: biochemical; design: ExpresS Diversity kinase profile (Eurofins Cerep P10), per cent inhibition; conditions: read-out: Inhibition of reference binding (Table 4)
T7 construct: gene NTRK1

[23] = target: PAK4 (Homo sapiens, UniProt O96013); assay: biochemical; design: ExpresS Diversity kinase profile (Eurofins Cerep P10), per cent inhibition; conditions: read-out: Inhibition of reference binding (Table 4)
[24] = target: T8, CaMK2α (Homo sapiens, UniProt Q9UQM7); assay: biochemical; design: ExpresS Diversity kinase profile (Eurofins Cerep P10), per cent inhibition; conditions: read-out: Inhibition of reference binding (Table 4)
T8 construct: gene CAMK2A

[25] = target: T9, CHK1 (Homo sapiens, UniProt O14757); assay: biochemical; design: ExpresS Diversity kinase profile (Eurofins Cerep P10), per cent inhibition; conditions: read-out: Inhibition of reference binding (Table 4)
T9 construct: gene CHEK1

[26] = target: FGFR2 kinase (Homo sapiens, UniProt P21802); assay: biochemical; design: ExpresS Diversity kinase profile (Eurofins Cerep P10), per cent inhibition; conditions: read-out: Inhibition of reference binding (Table 4)
[27] = target: PRLR-JAK2 (Homo sapiens, UniProt P16471); assay: cell-based; design: PathHunter eXpress functional assay (DiscoverX tkMAX), inhibition of reference ligand response; conditions: read-out: % Inhibition of reference binding (Table 3)
[28] = target: T10, TrkC-P75 (Homo sapiens, UniProt Q16288); assay: cell-based; design: PathHunter eXpress functional assay (DiscoverX tkMAX), inhibition of reference ligand response; conditions: read-out: % Inhibition of reference binding (Table 3)
T10 construct: gene NTRK3
T10 sequence (Q16288 whole entry): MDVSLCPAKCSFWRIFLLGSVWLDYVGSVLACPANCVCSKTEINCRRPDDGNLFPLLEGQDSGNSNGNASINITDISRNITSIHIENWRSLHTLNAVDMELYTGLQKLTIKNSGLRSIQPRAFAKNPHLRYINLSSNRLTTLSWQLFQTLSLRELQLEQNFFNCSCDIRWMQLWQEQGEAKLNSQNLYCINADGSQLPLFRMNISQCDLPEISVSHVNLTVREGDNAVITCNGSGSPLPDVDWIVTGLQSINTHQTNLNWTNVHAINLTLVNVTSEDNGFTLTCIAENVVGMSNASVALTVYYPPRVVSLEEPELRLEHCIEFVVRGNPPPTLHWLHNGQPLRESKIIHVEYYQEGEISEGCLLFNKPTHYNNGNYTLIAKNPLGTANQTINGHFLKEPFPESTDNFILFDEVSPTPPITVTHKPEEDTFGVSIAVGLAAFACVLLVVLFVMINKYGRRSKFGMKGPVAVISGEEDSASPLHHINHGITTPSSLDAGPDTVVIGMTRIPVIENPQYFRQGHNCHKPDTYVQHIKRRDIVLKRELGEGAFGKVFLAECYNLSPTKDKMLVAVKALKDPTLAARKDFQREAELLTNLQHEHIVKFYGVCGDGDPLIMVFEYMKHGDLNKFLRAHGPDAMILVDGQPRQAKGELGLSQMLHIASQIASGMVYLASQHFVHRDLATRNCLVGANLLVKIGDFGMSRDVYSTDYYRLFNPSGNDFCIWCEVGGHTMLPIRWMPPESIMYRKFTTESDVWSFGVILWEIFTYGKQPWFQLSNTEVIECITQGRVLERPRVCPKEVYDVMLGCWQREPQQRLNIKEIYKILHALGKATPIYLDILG
T10 sequence (P08138 whole entry partner): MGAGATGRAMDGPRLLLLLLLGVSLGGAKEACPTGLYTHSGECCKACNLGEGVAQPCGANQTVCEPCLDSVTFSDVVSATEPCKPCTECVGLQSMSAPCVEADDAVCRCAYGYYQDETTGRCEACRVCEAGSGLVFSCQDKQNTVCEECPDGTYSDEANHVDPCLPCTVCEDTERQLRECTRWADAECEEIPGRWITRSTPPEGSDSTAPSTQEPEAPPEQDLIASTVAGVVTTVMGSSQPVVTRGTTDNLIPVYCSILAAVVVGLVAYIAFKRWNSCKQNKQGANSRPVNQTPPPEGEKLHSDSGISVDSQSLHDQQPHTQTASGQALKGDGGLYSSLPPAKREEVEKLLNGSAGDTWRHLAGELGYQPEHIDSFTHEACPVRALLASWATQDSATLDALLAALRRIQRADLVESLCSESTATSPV

inhibition at 10 µM [1]: 13%
inhibition at 10 µM [2]: 4%
inhibition at 10 µM [3]: -4%
inhibition at 10 µM [4]: 20%
inhibition at 10 µM [5]: -13%
inhibition at 10 µM [6]: -1%
inhibition at 10 µM [7]: 7%
inhibition at 10 µM [8]: -6%
inhibition at 10 µM [9]: -4%
inhibition at 10 µM [10]: -5%
inhibition at 10 µM [11]: 0%
inhibition at 10 µM [12]: 16%
inhibition at 10 µM [13]: -23%
inhibition at 10 µM [14]: 19%
inhibition at 10 µM [15]: 32%
inhibition at 10 µM [16]: 0%
inhibition at 10 µM [17]: 16%
inhibition at 10 µM [18]: -6%
inhibition at 10 µM [19]: -8%
inhibition at 10 µM [20]: 33%
inhibition at 10 µM [21]: 26%
inhibition at 10 µM [22]: 0%
inhibition at 10 µM [23]: 6%
inhibition at 10 µM [24]: 6%
inhibition at 10 µM [25]: -10%
inhibition at 10 µM [26]: -2%
inhibition at 10 µM [27]: 1.9%
inhibition at 10 µM [28]: 0.6%
Compound: O=C(Nc1cc(Cl)ccc1O)c1cccc(S(=O)(=O)N2CCCCC2)c1 [compound 66, BDT001]
